# Data taken from patent publication US5783449A (priority 1996, dated 1998).
# How the values were obtained:
# [1] = in vivo
# Method: (§1) The BAC readings used in tables 1 and 2 were obtained using breath samples taken with the INTOXIMETER EC/IR 3000 made by Intoximeters, Inc. of St. Louis, Mo. This device has a rated accuracy of ±0.001 (1 mg/dl). The machine was reprogrammed to increase ethanol values by five percent from factory settings to more accurately reflect actual BAC.
# clinical = details: in vivo
# From the text: Even though ethanol elimination begins at very outset of consumption, formally the process breaks out from an apex into a pharmacokinetical curve--the break point of a neutralizing reaction against extreme absorption-distribution action.
# AUCabs-distr is the absorption-distribution of ethanol and is equal to the AUC under the ascending part of the curve;
# AUCpostabs +AUCdistr is a sum of the postabsorption and distribution of ethanol and is equal to the AUC between the ascending and descending part of the plotted curve. Because most pharmacokinetical cases have a triangle-like shape for the curve, it obviously has no value. However, if the value occurs (in a case with a trapezium-like shape for the curve) it disregards from calculation, because proportional representation for this internal rectangular-like composite AUC is the same as the Index-K value;
# and AUCelim is the elimination of ethanol and is equal to the AUC under the descending part of the pharmacokinetical curve.
# (§2) To verify the results, after ethanol consumption, BAC levels were repeatedly measured by INTOXIMETER EC/IR 3000, until two successive zero BAC measurements were obtained. […] A special electrochemical membrane measured oxidation by transdermal ethanol. The resulting current measured is expressed in micro Amperes (μA) and was automatically multiplied by 35 for TAS#37; by 40 for TAS#34, TAS#39, or by 45 for TAS#33 depending on type of construction for the device.
# BAC tests were conducted on 83 volunteer individuals, 48 of whom were non-alcoholic males, 27 of whom were non-alcoholic females and 8 of whom were alcoholic males.
# This dose was divided into three equal parts.
# as §1
# [2] = in vivo; remark: listed apart in the source
# From the text: as §2
# [3] = tested on: Microsomal Ethanol-Oxidation System (MEOS); details: human body; stated as well known; cited from earlier work
smiles,measurement,setting,value
"CCO [alcohol, ethanol]",blood/breath ratio,[1],0.994
same,Time to peak,"clinical; human, po",66 '
same,peak in the BAC,"clinical; human, po",68.2 (s.d.=8.98)
same,Cmax,"clinical; human, po, peak in the BAC",697 µg/mL
same,ratio of Index-K between alcoholic and non-alcoholic drinkers,clinical,about twice
same,Index-K (range over methods),[2],1.9-1.97
same,variation in the amplitude of the curves,[2],2.7 fold
same,variation of the elimination time,[2],1.9 fold
same,variation of the time to peak,[2],1.7 fold
same,fraction of consumed alcohol destroyed by MEOS,[3],approximately one-fifth
